The values that follow come from PubChem BioAssay (NCI).

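1) Cells in 96-well plates. 2) Compound, 48 h, 5 concentrations. 3) Linear interpolation between surrounding doses. 4) Unreached endpoint = highest concentration. GI50 marks 50% less growth. TGI: total growth inhibition.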

Some test systems named below: EKVX NSCLC; SK-MEL-5 melanoma; KM12 colon; SK-OV-3 ovarian; 786-0 renal; TK-10 renal; HOP-92 NSCLC; U251 CNS; OVCAR-5 ovarian; SNB-75 CNS.
Holding throughout (test): growth of human tumour cells (NCI), 48 h

On to `COc1cc(/C=C/C(=O)/C=C/c2ccc(-n3ccnc3)cc2)ccc1O`, for which the GI50 is 13.2 µM with EKVX NSCLC; 3.43 µM in the experiment with SK-MEL-5 melanoma; 2110 nM in the experiment on KM12 colon; 6.07 µM in the experiment with SK-OV-3 ovarian; 2010 nM with 786-0 renal; 4.42 µM with TK-10 renal. For the same compound, the GI50 in the experiment on HOP-92 NSCLC was 10500 nM; in the experiment with U251 CNS, 2.21 µM; in the experiment with OVCAR-5 ovarian it was 16.6 µM; in the experiment with SNB-75 CNS, 9.96 µM. Further, the TGI with EKVX NSCLC is 42 µM; in the experiment with SK-MEL-5 melanoma, 12 µM; with KM12 colon, 4.59 µM; with SK-OV-3 ovarian, 36.1 µM; in the experiment with 786-0 renal, 4.85 µM; with TK-10 renal, 36.3 µM. In addition, the TGI in the experiment with HOP-92 NSCLC was 27.1 µM; in the experiment on U251 CNS, 5.24 µM; in the experiment with OVCAR-5 ovarian it was 33.9 µM; in the experiment on SNB-75 CNS, greater than 100 µM.

With `NCC[PH+](c1ccccc1)c1ccccc1.NCC[PH+](c1ccccc1)c1ccccc1.[Cl-].[Pt+4]`, the GI50 in the experiment on EKVX NSCLC was greater than 100 µM; in the experiment on SK-MEL-5 melanoma, greater than 100 µM; in the experiment on KM12 colon, greater than 100000 nM; with SK-OV-3 ovarian it was greater than 100 µM; in the experiment on 786-0 renal it was greater than 100000 nM; in the experiment on TK-10 renal it was greater than 100 µM. Moreover, the GI50 in the experiment with HOP-92 NSCLC is greater than 100000 nM; in the experiment with U251 CNS it was 39.3 µM; with OVCAR-5 ovarian it was greater than 100 µM; with SNB-75 CNS it was greater than 100 µM. For the same compound, the TGI with EKVX NSCLC, in the experiment with SK-MEL-5 melanoma, in the experiment with KM12 colon, with SK-OV-3 ovarian, with 786-0 renal and in the experiment on TK-10 renal was greater than 100 µM throughout. Moreover, the TGI with HOP-92 NSCLC, in the experiment with U251 CNS, in the experiment with OVCAR-5 ovarian and in the experiment on SNB-75 CNS was greater than 100 µM each time.

As for `c1ccc2c(c1)n1nnnc1c1nnnn21`, the TGI in the experiment with EKVX NSCLC, in the experiment with SK-MEL-5 melanoma, in the experiment with KM12 colon, in the experiment with SK-OV-3 ovarian, in the experiment on 786-0 renal and in the experiment with TK-10 renal was greater than 100 µM throughout. Also, the TGI in the experiment with HOP-92 NSCLC is greater than 100 µM; with U251 CNS it was greater than 100 µM; with OVCAR-5 ovarian, greater than 100 µM; in the experiment with SNB-75 CNS, 84.3 µM.

With `CNc1ccc(CSc2ccc(C)cc2)cc1`, the GI50 with EKVX NSCLC is 15.3 µM; in the experiment with SK-MEL-5 melanoma it was 13.8 µM; with KM12 colon it was 8580 nM; in the experiment with SK-OV-3 ovarian, greater than 100 µM; in the experiment on 786-0 renal it was 4450 nM; in the experiment with TK-10 renal, 40.3 µM. Also, the GI50 in the experiment with HOP-92 NSCLC was 2360 nM; in the experiment with U251 CNS, 9.85 µM; in the experiment on OVCAR-5 ovarian, 71.3 µM; in the experiment on SNB-75 CNS, 11.9 µM. Also, the TGI in the experiment with EKVX NSCLC was greater than 100 µM; in the experiment on SK-MEL-5 melanoma, 32.6 µM; in the experiment on KM12 colon, greater than 100 µM; in the experiment on SK-OV-3 ovarian it was greater than 100 µM; in the experiment with 786-0 renal, greater than 100 µM; in the experiment with TK-10 renal it was greater than 100 µM. The TGI in the experiment with HOP-92 NSCLC is 25.9 µM; in the experiment on U251 CNS it was greater than 100 µM; in the experiment on OVCAR-5 ovarian, greater than 100 µM; in the experiment on SNB-75 CNS, greater than 100 µM.

As for `CCCC/C=C1/CCC(CN(C)C)C1=O` (configuration not stated), the GI50 was 2.14 µM with EKVX NSCLC and 0.0971 µM with OVCAR-5 ovarian. Also, the TGI with EKVX NSCLC amounted to 4.48 µM; in the experiment with SK-MEL-5 melanoma, 22 µM; in the experiment with KM12 colon, 2.31 µM; in the experiment with SK-OV-3 ovarian, 25.1 µM; in the experiment with 786-0 renal, 2.9 µM; in the experiment on TK-10 renal, 2.51 µM. The TGI was found to be 3.83 µM with HOP-92 NSCLC, 4.19 µM in the experiment on U251 CNS, 12.3 µM in the experiment on OVCAR-5 ovarian and 6.99 µM in the experiment on SNB-75 CNS.

Turning to `C=C1CCC2C(C)(CO)C(O)CCC2(C)C1C/C=C1\C(=O)OCC1O` (configuration not stated), the TGI was 99.7 µM with EKVX NSCLC; 27.8 µM with SK-MEL-5 melanoma; 27.2 µM with KM12 colon; 66.7 µM with SK-OV-3 ovarian; 18.1 µM in the experiment with 786-0 renal; greater than 100 µM in the experiment on TK-10 renal. Also, the TGI is 66.1 µM with HOP-92 NSCLC, 23.1 µM in the experiment on U251 CNS, 31.1 µM with OVCAR-5 ovarian and 30.5 µM in the experiment with SNB-75 CNS.

Regarding `COc1cc(-c2ccc[nH]2)[nH]c1/C=C1\N=C(C)C(C(=O)NC(C)C)=C1C`, the GI50 was 6.35 µM with EKVX NSCLC; 1.34 µM with SK-MEL-5 melanoma; 1930 nM in the experiment on KM12 colon; 10.7 µM with SK-OV-3 ovarian; 2900 nM with 786-0 renal; 3.1 µM in the experiment with TK-10 renal. For the same compound, the GI50 in the experiment with HOP-92 NSCLC was 2220 nM; in the experiment on U251 CNS it was 2.59 µM; in the experiment with OVCAR-5 ovarian, 2.97 µM; in the experiment on SNB-75 CNS, 4.94 µM. In addition, the TGI in the experiment with EKVX NSCLC came to 23.2 µM; with SK-MEL-5 melanoma, 2.7 µM; with KM12 colon it was 13.7 µM; with SK-OV-3 ovarian it was 22.8 µM; in the experiment with 786-0 renal it was 11.7 µM; with TK-10 renal it was 9.71 µM. In addition, the TGI with HOP-92 NSCLC stood at 6.05 µM; in the experiment with U251 CNS it was 13.3 µM; in the experiment on OVCAR-5 ovarian it was 17.3 µM; in the experiment on SNB-75 CNS it was 17.2 µM.
